{"source": "patent US8759010B2", "about": "“Host cell kinases as targets for antiviral therapies against HCV infection” (INSERM (Institut National de la Sante et de la Recherche …, priority 2008, dated 2014)", "key": {"[1]": {"tested_on": "subgenomic HCV JFH1 replicon", "assay": "HCV replication, subgenomic JFH1 replicon, Northern blot", "format": "cell-based", "settings": "Huh7.5 cells electroporated with subgenomic JFH1 replicon RNA, 24 h incubation, FIG. 9C", "description": "HEK 293T, Huh7 and Huh7.5.1 cells used in the present study have previously been described (Bartosch, 2003; Barth, 2003; Zhong, 2005). Primary human hepatocytes were isolated and cultured as previously described (David, 1998, which is incorporated herein by reference in its entirety). Subgenomic HCV replicon JFH1-SGR used herein has also previously been described (Kato, 2005).\nA 9.7 kb fragment derived from plasmid […] (Wakita, 2005) digested with XbaI and EcoRI was labeled with α^32P-CTP using NEBlot kit (NEB, USA). Northern blotting was performed according to standard protocols (F. M. Ausubel et al., “Current Protocols in Molecular Biology”, John Wiley 1 Sons, Inc., 2007).\nElectroporation of RNA derived from plasmids pSGR-JFH1 was performed as previously described (Lan, 2008). Four hours after electroporation, cells were incubated with protein kinase inhibitors in cell culture supernatant for 24 hours. Total RNA was isolate and analyzed by Northern blot analysis of HCV RNA as described (Lohmann, 1999)."}, "[2]": {"tested_on": "HCVcc Luc-Jc1, genotype 2a/2a", "assay": "microbe, parasite or virus in culture", "format": "cell-based, HCV", "settings": "for IC50: Hepatitis C virus, hepatocytes or hepatocyte-derived cell lines, FIG. 9, read-out: IC50, inhibition of HCV entry and infection"}, "HCVpp JFH1; genotype 2a": {"tested_on": "HCVpp JFH1; genotype 2a", "assay": "HCVpp entry in primary human hepatocytes", "format": "cell-based, HCV", "settings": "JFH1-derived HCVpp; inhibitor added 1 h prior to infection; FIG. 9B"}, "[3]": {"tested_on": "HCVpp (genotype 1b) bearing envelope glycoproteins from HCV strains VD, VH, VK, VN", "assay": "Entry of patient-derived HCVpp in primary human hepatocytes", "format": "cell-based", "settings": "10 μM, 1 h prior to infection, FIG. 10C"}, "Huh7.5 cells": {"tested_on": "Huh7.5 cells", "assay": "MTT cell viability, Huh7.5 cells", "format": "cell-based, human", "settings": "10 μM, FIG. 7C", "procedure": "(§1) Toxicity Assays. Cytotoxicity effects on cells were assessed in triplicates by analyzing the ability to metabolize 3-(4,5-dimethylthiazol-2-yl)-2,5-diphenyltetrazolium bromide (MTT) (Lan, 2008). For siRNA experiments, MTT was added 3 days after transfection with siRNA for 5 hours. The final concentration of MTT was 0.6 mg/mL. Formazan crystals produced by the cells were solubilized and measured as described (Mosmann, 1983). 2. Identification of Cellular Kinases Involved in HCV Entry Using a Genome-Wide RNAi Kinase HCV Entry Screen"}, "Huh7.5.1 cells": {"tested_on": "Huh7.5.1 cells", "assay": "MTT cell viability, Huh7.5.1 cells", "format": "cell-based, human", "settings": "10 μM, FIG. 7D", "procedure": "as §1"}, "HCVpp H77C, genotype 1a": {"tested_on": "HCVpp H77C, genotype 1a", "assay": "HCVpp entry in hepatoma cells, luciferase reporter (Example 1)", "format": "cell-based, HCV", "settings": "Huh7.5.1 cells, 1 μM or 10 μM inhibitor, 1 h prior to 3 h post-infection, FIG. 3"}, "HCVcc JFH1": {"tested_on": "HCVcc JFH1", "assay": "HCVcc infection of Huh7.5.1 cells, luciferase reporter or RT-PCR of HCV RNA (Example 1)", "format": "cell-based", "settings": "1 μM or 10 μM inhibitor, dose-dependent, FIG. 3", "procedure": "Bicistronic plasmid pFK-Luc-Jc1 (Koutsoudakis, 2006) encodes a luciferase reporter gene and a chimeric HCV genome designated Jc1 which consists of J6CF and JFH1 segments. In vitro HCV RNA synthesis and RNA transfection were carried out as previously described (Wakita, 2005). Culture supernatants from transfected cells were cleared and concentrated as previously described using an Amicon Ultra 15 (Millipore, USA) and used directly or were stored at 4° C. or −80° C. Viruses were titrered by using the limiting dilution assay on Huh7.5.1 cells with a few minor modifications and TCID50 values were calculated based on a method previously described (Lindenbach, 2005).\nAll inhibitors used in this study were obtained from LC Laboratories (USA). Before use, they were dissolved in DMSO and diluted in Huh7.5.1 cell culture medium (Zhong, 2005). Following incubation, HCVpp entry and HCVcc infection were assessed by luciferase reporter gene expression or RT-PCR of HCV RNA in cells as previously reported (Pestka, 2007; Zeisel, 2007)."}, "[4]": {"tested_on": "HCVpp (genotype 1b) bearing envelope glycoproteins from HCV strains VD, VH, VK, VN", "assay": "Entry of patient-derived HCVpp in Huh7.5 cells", "format": "cell-based", "settings": "10 μM, 1 h prior to infection, FIG. 10B"}, "[5]": {"settings": "achievable plasma concentrations; Hidalgo and Bloedow, 2003; cited from earlier work"}, "[6]": {"tested_on": "primary human hepatocytes", "assay": "MTT cell viability, primary human hepatocytes", "format": "cell-based", "procedure": "Toxicity Assays. […] For siRNA experiments, MTT was added 3 days after transfection with siRNA for 5 hours. The final concentration of MTT was 0.6 mg/mL. […] 2."}, "HCVpp": {"tested_on": "HCVpp", "assay": "HCVpp entry in primary human hepatocytes (Flavopiridol)", "settings": "HCVpp strain not stated"}}, "note": "Entries after “also recorded” stand apart in the source; their conditions may differ. Where two headings read alike, the source gives them in different places."}
{"smiles": "Cc1nc(Nc2ncc(C(=O)Nc3c(C)cccc3Cl)s2)cc(N2CCN(CCO)CC2)n1", "note": "[Dasatinib]", "values": [{"measurement": "HCV replication", "setting": "[1]", "value": "did not inhibit"}, {"measurement": "IC50", "setting": "[2]", "value": 2000, "unit": "nM"}, {"measurement": "HCVpp entry in primary human hepatocytes", "setting": "HCVpp JFH1; genotype 2a", "value": "markedly inhibited"}, {"measurement": "Entry of patient-derived HCVpp in primary human hepatocytes", "setting": "[3]", "value": "markedly inhibited"}]}
{"smiles": "c1cc(-c2cnn3cc(-c4ccc(OCCN5CCCCC5)cc4)cnc23)ccn1", "note": "[Dorsomorphin]", "values": [{"measurement": "Cell viability (MTT assay)", "setting": "Huh7.5 cells", "value": "not diminished"}, {"measurement": "Cell viability (MTT assay)", "setting": "Huh7.5.1 cells", "value": "slightly reduced"}]}
{"smiles": "C#Cc1cccc(Nc2ncnc3cc(OCCOC)c(OCCOC)cc23)c1", "note": "[Erlotinib]", "values": [{"measurement": "HCVpp entry", "setting": "HCVpp H77C, genotype 1a", "value": "markedly inhibit"}, {"measurement": "HCVcc infection", "setting": "HCVcc JFH1", "value": "markedly inhibit"}, {"measurement": "HCV replication", "setting": "[1]", "value": "without markedly modulating replication; also recorded: did not inhibit"}, {"measurement": "HCVcc infection", "setting": "[2]; HCVcc Luc-Jc1, inhibitor added 1 h prior to infection, dose-dependent, FIG. 9A", "value": "dose-dependently inhibited; also recorded: markedly inhibited"}, {"measurement": "IC50", "setting": "[2]; Hepatocyte", "value": "~500", "unit": "nM"}, {"measurement": "Inhibitory effect on HCVcc infection by detection of viral RNA using RT-PCR", "setting": "[2]; data not shown", "value": "confirmed"}, {"measurement": "HCVpp entry in primary human hepatocytes", "setting": "HCVpp JFH1; genotype 2a", "value": "dose-dependently inhibited"}, {"measurement": "Entry of patient-derived HCVpp in Huh7.5 cells", "setting": "[4]", "value": "markedly inhibited; also recorded: more potent than Dasatinib"}, {"measurement": "Entry of patient-derived HCVpp in primary human hepatocytes", "setting": "[3]", "value": "markedly inhibited"}, {"measurement": "mean plasma concentrations", "setting": "[5]", "value": "~4", "unit": "µM"}]}
{"smiles": "CN1CC[C@H](c2c(O)cc(O)c3c(=O)cc(-c4ccccc4Cl)oc23)[C@H](O)C1", "note": "[Flavopiridol]", "values": [{"measurement": "Cytotoxic effects", "setting": "[6]", "value": "absence of any detectable cytotoxic effects"}, {"measurement": "HCVpp entry in primary human hepatocytes", "setting": "HCVpp", "value": "markedly inhibited"}]}
{"smiles": "COc1cc2ncnc(Nc3ccc(F)c(Cl)c3)c2cc1OCCCN1CCOCC1", "note": "[Gefitinib]", "values": [{"measurement": "HCVpp entry", "setting": "HCVpp H77C, genotype 1a", "value": "markedly inhibit"}, {"measurement": "HCVcc infection", "setting": "HCVcc JFH1", "value": "markedly inhibit"}]}
{"smiles": "CS(=O)(=O)CCNCc1ccc(-c2ccc3ncnc(Nc4ccc(OCc5cccc(F)c5)c(Cl)c4)c3c2)o1", "note": "[Lapatinib]", "values": [{"measurement": "HCVpp entry", "setting": "HCVpp H77C, genotype 1a", "value": "markedly inhibit"}, {"measurement": "HCVcc infection", "setting": "HCVcc JFH1", "value": "markedly inhibit"}]}
{"smiles": "N#Cc1cnc2cnc(NCc3cccnc3)cc2c1Nc1ccc(F)c(Cl)c1", "note": "[TpI2 kinase inhibitor]", "values": [{"measurement": "Entry of patient-derived HCVpp in Huh7.5 cells", "setting": "[4]", "value": "did not result in a reproducible inhibition"}]}
{"smiles": "COC[C@H]1OC(=O)c2coc3c2[C@@]1(C)C1=C(C3=O)[C@@H]2CCC(=O)[C@@]2(C)C[C@H]1OC(C)=O", "note": "[Wortmannin]", "values": [{"measurement": "HCVpp entry in primary human hepatocytes", "setting": "HCVpp JFH1; genotype 2a", "value": "did not have any effect"}, {"measurement": "Entry of patient-derived HCVpp in Huh7.5 cells", "setting": "[4]", "value": "did not inhibit"}]}
